Data set [1] can be described thus: Lipophilicity, n-octanol/PBS distribution coefficient logD7.4. In kind it is physicochemical. To be noted: 177Lu-labeled peptide; n-octanol/PBS (1/1), n ≥ 5. How it is done: For determination of lipophilicity, the respective ^177Lu-Labeled peptide precursor (~ 1 MBq, 10 µL in 0.04 M HCl) was added to a solution of n-octanol/PBS (1/1, v/v, 1 mL) and vigourously mixed for 3 min at room temperature (n ≥ 5). Afterwards both phases were seperated using a Biofuge 15 centrifuge (Heraus Sepatech GmbH, Osterode, Germany) at 9,000 rpm for 5 min. 200 µL aliquots of both layers were collected separately, measured in a γ-counter (Perkin Elmer, Waltham, MA, USA) and the logD7.4 value was obtained.

Data set [2] deals with T1, Human serum albumin (HSA) (Homo sapiens, UniProt P02768).
T1 construct: purchased Daicel, Tokyo, Japan H13H-2433
Briefly: Human serum albumin binding via high performance affinity chromatography (HPAC). The format is in vitro ADME. The conditions noted are these: Chiralpak HSA column, n = 1. How it is done: Human serum albumin (HSA) binding was determined via high performance affinity chromatography (HPAC), according to previously published protocols. Human serum albumin interaction was calculated according to the retention time (n = 1) of our compounds on a Chiralpak HSA column in dependence of nine reference compounds with known HSA interaction.
Human serum albumin binding was determined via high performance affinity chromatography. Therefore, a Chiralpak HSA column (50 × 3 mm, 5 µm, H13H-2433, Daicel, Tokyo, Japan) was used at a constant flow rate of 0.5 ml/min at room temperature. Mobile phase A consisted of a freshly prepared aqueous solution of NH4OAc (pH = 6.9, 50 mM) and mobile phase B of isopropanol. Calibration of the column was performed daily prior to experiments, by determining the retention times of nine reference substances displaying a HSA binding from 13 to 99%. HPLC gradient for all compounds tested was 100% A (0 to 3 min), followed by 80% A (3 to 40 min). All substances tested, were dissolved in a mixture of A/B (0.5 mg/mL, 1:1, v/v). OriginPro 2016G software (Northampton, United States) was used for non-linear regression and data evaluation.

Data set [3] deals with T2, cholecystokinin-2 receptor (CCK-2R) (Rattus norvegicus, UniProt P30553).
T2 construct: host or cells: AR42J (rat pancreatic cancer cells)
T2 sequence (P30553 1-452): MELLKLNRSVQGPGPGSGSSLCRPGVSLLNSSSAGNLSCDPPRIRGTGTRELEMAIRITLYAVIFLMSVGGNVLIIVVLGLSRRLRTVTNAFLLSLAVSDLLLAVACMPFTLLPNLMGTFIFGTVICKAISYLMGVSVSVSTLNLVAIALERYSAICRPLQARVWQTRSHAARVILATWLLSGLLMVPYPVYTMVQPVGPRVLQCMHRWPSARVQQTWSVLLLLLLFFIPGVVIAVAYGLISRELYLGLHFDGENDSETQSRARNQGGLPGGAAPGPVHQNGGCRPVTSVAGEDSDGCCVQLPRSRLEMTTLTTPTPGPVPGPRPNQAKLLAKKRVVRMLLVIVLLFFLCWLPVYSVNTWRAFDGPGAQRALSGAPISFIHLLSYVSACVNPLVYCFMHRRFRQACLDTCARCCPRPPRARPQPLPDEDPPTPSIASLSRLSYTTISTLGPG
Kind of data set: CCK-2R affinity (apparent IC50), competitive binding on AR42J cells. The conditions noted are these: natLu-labeled peptide, 3 h, 37 °C, [177Lu]Lu-DOTA-PP-F11N (0.3 pmol) as radiolabeled reference. How it is done: On the next day, medium was removed, cells were washed with PBS (300 µL) and fresh nutrient medium supplemented with 5% BSA (200 µL) was added. The peptide of interest (25 µL in nutrient medium) in increasing concentrations (10^−10 to 10^−4 M) in triplicate as well as [^177Lu]Lu-DOTA-PP-F11N (25 μL, 0.3 pmol) were added to the cells and the assay was incubated for 3 h at 37 °C. Subsequently, the supernatant was collected, cells were washed with PBS (300 µL) and both fractions were unified. Cell lysis was conducted by addition of NaOH (300 µL, 1 N) and incubation for at least 20 min at room temperature. The supernatant was collected, the respective wells were washed with NaOH (300 µL, 1 N) and both fractions were unified. Radioactivity of all fractions collected was quantified using a γ-counter (PerkinElmer Inc., Waltham, United States). Apparent half-maximal inhibitory concentration (IC50) was calculated via the GraphPad PRISM software (GraphPad Software Inc., La Jolla, United States).
CCK-2R positive rat pancreatic cancer cells AR42J (CLS GmbH, Eppelheim, Germany) were cultivated in monolayers in CELLSTAR® cell culture flask (Greiner Bio-One GmbH, Frickenhausen, Germany) at 37°C in a humidified atmosphere (5% CO2). Therefor, a HERAcell 150i-Incubator (Thermo Fisher Scientific Inc., Waltham, United States) was used. RPMI 1640 medium, supplemented with 5 mM L-Gln 5 mL non-essential amino acids (100×) and 10% FCS, was used for cell nutrition. Detachment of the cells for passaging was conducted with a Dulbecco’s PBS solution supplemented with 0.1% EDTA (v/v). Cell numbers were determined with a Neubauer hemocytometer (Paul Marienfeld, Lauda-Königshofen, Germany). All operations requiring sterile conditions, were accomplished using a MSC-Advantage safety workbench (Thermo Fisher Scientific Inc., Waltham, United States).
Table S1. Affinity, lipophilicity and human serum albumin binding data of the compounds evaluated. Affinity data were determined on AR42J cells (2.0 × 10^5 cells/well) and [^177Lu]Lu-DOTA-PP-F11N (0.3 pmol/well) as radiolabeled reference (3 h, 37 °C, RPMI 1640, 5 mM L-Gln, 5 mL non-essential amino acids (100×), 10% FCS + 5% BSA (v/v)).

The target in data set [4] is T2, cholecystokinin-2 receptor (CCK-2R). To be noted: AR42J cells; read-out: apparent IC50; cited from earlier work.
Data set [5] deals with AR42J tumor-bearing CB17-SCID mice. The conditions noted are these: 24 h p.i.; cited from earlier work.

Where two headings read alike, the source gives them in different places. Numbered stars: 1 amine (or outer) side, 2 acyl side, 3 side chain; on linkers, the order of the positions; unused ones are H or OH. Square brackets hold non-standard residues; d marks the D form. Peptide text beside a SMILES is read from it. * marks the point of attachment. X1 = CC(C)(C)[Si](F)(c1ccc(C[N+](C)(C)CC(=O)*)cc1)C(C)(C)C; DOTA = O=C(O)CN1CCN(CC(=O)O)CCN(CC(=O)*)CCN(CC(=O)O)CC1; d(γGlu) = O=C(O)[C@@H](CCC(=O)[*:2])N[*:1]; 1Nal = N[C@@H](Cc1cccc2ccccc12)C(=O)O; PEG5 = NCCOCCOCCOCCOCCOCCC(=O)O; NMeNle = CCCC[C@H](NC)C(=O)O; PEG4 = NCCOCCOCCOCCOCCC(=O)O; Nle = CCCC[C@H](N)C(=O)O; dDap = NC[C@@H](N)C(=O)O

T1 sequence (P02768 25-609): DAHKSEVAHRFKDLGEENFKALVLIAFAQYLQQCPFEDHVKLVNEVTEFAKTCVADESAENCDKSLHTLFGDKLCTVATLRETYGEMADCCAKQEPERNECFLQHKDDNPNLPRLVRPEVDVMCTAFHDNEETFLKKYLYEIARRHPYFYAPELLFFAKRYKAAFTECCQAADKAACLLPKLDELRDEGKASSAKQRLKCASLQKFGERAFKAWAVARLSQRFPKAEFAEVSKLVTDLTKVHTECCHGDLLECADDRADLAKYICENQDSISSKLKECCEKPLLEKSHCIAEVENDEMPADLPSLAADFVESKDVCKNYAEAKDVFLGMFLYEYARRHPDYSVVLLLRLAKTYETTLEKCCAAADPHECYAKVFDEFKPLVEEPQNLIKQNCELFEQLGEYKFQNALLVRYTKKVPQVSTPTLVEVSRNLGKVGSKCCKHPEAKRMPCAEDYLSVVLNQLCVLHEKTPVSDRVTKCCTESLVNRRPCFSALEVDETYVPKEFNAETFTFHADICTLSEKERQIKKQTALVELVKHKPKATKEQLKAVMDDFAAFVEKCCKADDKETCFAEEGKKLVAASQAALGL

`CCCC[C@@H](C(=O)N[C@@H](CC(=O)O)C(=O)N[C@@H](Cc1cccc2ccccc12)C(N)=O)N(C)C(=O)[C@H](Cc1c[nH]c2ccccc12)NC(=O)CCOCCOCCOCCOCCNC(=O)CC[C@@H](NC(=O)CCOCCOCCOCCOCCOCCOCCOCCOCCOCCOCCOCCOCCNC(=O)CC[C@@H](NC(=O)[C@@H](CNC(=O)c1cc(C(=O)O)cc([Si](F)(C(C)(C)C)C(C)(C)C)c1)NC(=O)CN1CCN(CC(=O)O)CCN(CC(=O)O)CCN(CC(=O)O)CC1)C(=O)O)C(=O)O` [[^nat/177Lu]Lu-DOTA-rhCCK-69, DOTA-D-Dap(SiFA-ipa)-D-γ-Glu-(PEG)11-B, metal not drawn]: the logD in data set [1] is -2.11 ± 0.09. For the same molecule, in data set [2], the HSA binding is on record as 84.7%. For the same molecule, the IC50 in data set [3] (n = 3, listed as [^natLu]Lu-DOTA-rhCCK-69) worked out at 42.1 ± 1.7 nM.

On to `CCCC[C@@H](C(=O)N[C@@H](CC(=O)O)C(=O)N[C@@H](Cc1cccc2ccccc12)C(N)=O)N(C)C(=O)[C@H](Cc1c[nH]c2ccccc12)NC(=O)CCOCCOCCOCCOCCNC(=O)CC[C@@H](NC(=O)CCOCCOCCOCCOCCOCCNC(=O)[C@@H](CNC(=O)C[N+](C)(C)Cc1ccc([Si](F)(C(C)(C)C)C(C)(C)C)cc1)NC(=O)CN1CCN(CC(=O)O)CCN(CC(=O)O)CCN(CC(=O)O)CC1)C(=O)O` [[^nat/177Lu]Lu-DOTA-rhCCK-90, DOTA-D-Dap(SiFAlin)-(PEG)4-B, metal not drawn] ({DOTA}-[dDap](X1)[PEG5][d(γGlu)][PEG4]W[NMeNle]D[1Nal]-NH2), for which the logD in data set [1] is -0.76 ± 0.09. In data set [2], this molecule showed an HSA binding of 94.5%. The IC50 in data set [3] (n = 3) was 9.9 ± 1 nM.

For “(R)-DOTAGA-D-Dap(p-SiFA)-(D-γ-Glu)6-Ala-Tyr-Gly-Trp-Nle-Asp-Phe-NH2 ({(R)‑DOTAGA-dDap(p-SiFA)-d(γGlu)-d(γGlu)-d(γGlu)-d(γGlu)-d(γGlu)-d(γGlu)}-AYGW[Nle]DF-NH2; also: 177Lu complex of DOTAGA) [[^177Lu]Lu-(R)-DOTAGA-rhCCK-16]”, the IC50 in data set [4] was 20.4 ± 2.7 nM. The “activity levels in the tumor” value in data set [5] is given as 18.0 ± 0.7 %ID/g.

The values above are taken from PMC10907560, “Significant reduction of activity retention in the kidneys via optimized linker sequences in radiohybrid-based minigastrin analogs” (EJNMMI Research, 2024).
